Assays:
Type in all cases: in vivo, mouse
[1] = system: WT, PWS (Snord116m+/p−) and PWS-KO (Snord116m−/p−) mice; assay: Weekly body weight, fat and lean mass (NMR), rectal temperature and food intake, Example 1
Description: All animal protocols were approved by the Institutional Animal Care and Use Commit-tee at Virginia Tech. Mice with the Snord116 paternal deletion (B6[Cg]-Snord116tm1.1Uta/J Stock No: 008149|1-loxp (KO), Snord116del) were obtained from Jackson Laboratories and maintained on a C57Bl/6 background. Genotyping and breeding were performed as reported. WT mice for the study were siblings of either the PWS (Snord116m+/p−) or PWS-KO (Snord116m−/p−) mice. PWS mice were generated by crossing WT females and male mice who were Snord116m−/p+. Breeder males (Snord116m−/p+) were generated in separate crosses to inherited their deleted allele from a maternal chromosome so that they were considered phenotypically normal in regards to Snord116 expression. PWS-KO (Snord116m−/p−) mice were generated by using non-sibling male and female mice of the genotype Snord116m−/p+ who had inherited their deleted allele maternally. In this type of mating, 50% of the offspring would be heterozygous (and never used for mating or the study, as the origin of their deleted allele could not be determined), and 25% each would have WT alleles or would be PWS-KO. Mice were housed at room temperature at about 22° C. with 12 h light/dark cycles at 7 a.m. and 7 p.m. and ad-libitum access to food (4.5% crude fat) and water. Mice were weaned at 3 weeks old, genotyped using an ear snip, […]. ear tagged, and housed with littermates of the same sex. For tissue dissection, mice were euthanized by CO2 asphyxiation between 12 p.m. and 2 p.m.
Body weight, fat, and lean mass, rectal temperature, and food intake were measured weekly. For body weight, fat, and lean mass measurements, mice were weighed on Mondays using a standard scale, and then placed in a Bruker (Billrica, MA, USA) LF90 NMR machine using the mouse holder. Measurements were recorded in grams for fat and lean mass.
All values were expressed as mean+SEM unless indicated otherwise. Comparison of means between groups and calculation of p-values were made using JMP Pro15 software (Cary, NC, USA), with Tukey's post hoc analysis for multiple comparisons when overall p-values in the comparison were significant. For the responses of weight, fat, lean mass, temperature, and food intake shown in figures, a fitted least squares regression with effects of genotype, treatment, and genotype×treatment was analyzed for Week 12 data only. Responses of these dependent variables were also analyzed across the 12-week time period, adding in effects of week, week×treatment, and week×genotype. […] The responses that had pre-post measures (wheel running, elevated plus, fasting glucose, glucose tolerance) were analyzed separately for the pre and post time periods (no effect of time). Animals were grouped together for the pre time period, regardless of their assigned data, as all animals were on standard mouse chow at that time. […] Rotarod data were collected only during the post-period and analyzed with a response of time and effects of genotype, treatment, and genotype×treatment. For area-under-the-curve calculations, the formula function in JMP was used to calculate the area for individual animals pre and post, and then fit least squares regression model used for effects of genotype, treatment, and genotype×treatment.

[2] = system: WT, PWS (Snord116m+/p−) and PWS-KO (Snord116m−/p−) mice; assay: Indirect calorimetry and home-cage activity (TSE system); settings: end of study, TSE metabolic chamber
Description: Indirect calorimetry and locomotor activity measurements were performed using a Labmaster Mouse calorimetry and Locomotor system (TSE Systems, Bad Homburg, Germany) in the Metabolism Core Virginia Tech. VO2 consumption and VCO2 production in individual mice were measured using metabolic chambers. Air going into the TSE system was at 20.9% oxygen, 0.05% CO2, and the airflow rate was 0.4 L/min (Airgas, Christiansburg, VA, USA). Data were collected every 15 min. Body composition was measured, as described above, prior to assessment of the animals using the TSE system. A photobeam-based ac-tivity monitoring system detected and recorded ambulatory movements. The results were used to calculate the respiratory exchange ratio (RER) and total energy expenditure/gram lean mass. Energy expenditure (KJ/h) was calculated using the formula VO2×(3.815+(1.232×RER))×4.1868 and normalized to the lean mass determined by NMR. All parameters were measured continuously and simultaneously for 48 h after approximately 20 h of adaptation for single-housed mice. The average values for the last 24-48 h were used for analysis. To calculate hourly activity, the average of two-hour bins of activity from the last 24 h period was plotted. […]

[3] = system: WT, PWS (Snord116m+/p−) and PWS-KO (Snord116m−/p−) mice; assay: Elevated plus maze anxiety-like behavior, Example 1; settings: pre- and post-intervention; genotype, treatment or interaction
Description: A plus-shaped elevated plus apparatus with two open and two closed arms was constructed using measurements obtained from a commercial apparatus. This elevated plus maze was used for anxiety-like behavior analysis. The maze was cleaned with 70% ethanol before and after the procedure for each mouse and allowed to fully dry between mice. Mice were placed in the center/cross-arms and allowed to freely explore the maze for 5 min while the duration and frequency of entries into open and closed arms was recorded. Animals that enter the open arms more frequently are considered to display less overall anxiety-like behavior than those that stay in the closed arms.

[4] = system: liver of WT, PWS and PWS-KO mice; assay: Liver histology (H&E)
Description: Tissues were isolated immediately following euthanasia by CO2 asphyxiation and placed into 4% paraformaldehyde, overnight, with rocking at 4° C. The tissues were then rinsed in 70% ethanol and stored in 70% ethanol at 4° C. until processing. The Virginia Tech Veterinary Teaching Hospital at the Virginia-Maryland College of Veterinary Medicine processed the tissues for histology and stained with hematoxylin-eosin stain for microscopy. Representative samples were visualized using a 40× ocular on a Nikon Eclipse 50i micro-scope and captured using an Olympus Q-color3 camera.

[5] = system: C57Bl/6 WT, PWS, PWS-KO mice and 129v/J mice with a deletion of Nhlh2; assay: Rotarod balance and forward locomotion, Example 2; settings: end of 12 week study, regardless of genotype
Description: At the end of the 12 week study, mice were acclimated to using a rotarod apparatus (FIG. 15A), for one day with grip tape on the rod, and two days without grip tape, at an acceleration of 2.65%, starting from 0) rpm to a maximum speed of 20 rpm. The average of four trials, spaced at least 5 minutes apart on day 4 of testing were the basis for the experimental result.

## conjugated linoleic acid [CLA]
[1]; WT mice, end of study
  Body fat, WT control diet more than WT CLA diet: ~4 g
[1]; all genotypes, vs control HFD alone
  Reduction in body fat levels with treatment: 3.6 fold
[1]; all three genotypes, 20% fat diet, vs control diet
  Body weight, overall effect of CLA diet: significant reductions in body weight overall for the three genotypes
[1]; each genotype on CLA diet vs control diet
  Body weight, post hoc per genotype: significant body weight reductions
[1]; whole model, 12 weeks
  Lean mass, treatment effect: without a treatment effect
[2]
  Home-cage activity: not significant
[3]
  Time in open arms, elevated plus: no differences
[4]; PWS and PWS-KO
  Mice with liver steatosis on CLA diet, PWS and PWS-KO: ~50%
[4]; PWS-KO
  Liver steatosis, PWS-KO mice on CLA diet: four of seven
[4]; PWS, two of these mild
  Liver steatosis, PWS mice on CLA diet: five of eight
[4]; WT
  Liver steatosis, WT mice on CLA diet: all liver sections
  Mice with liver steatosis on CLA diet, WT: 100%
[5]
  Rotarod balance and forward locomotion: balance and forward locomotion improvement

Reference: patent publication US20240238237A1, “CONJUGATED LINOLEIC ACID SUPPLEMENTATION FOR DISEASE TREATMENT” (VIRGINIA TECH INTELLECTUAL PROPERTIES, INC., priority 2021, published 2024)
